What all share (assay): Antibacterial activity (MIC), clinically isolated strain
Common to all, as to type: cell-based

In one assay the test system is A. calcoaceticus HNR939. The settings on record: Acinetobacter calcoaceticus; clinical isolate A. calcoaceticus HNR939, Gram -, 10^6 viable cells per ml; read-out: minimum inhibitory concentration (MIC). From the text: (§1) 1. Antibacterial spectrum against standard strains and clinically isolated strains
The test system of a further assay is K. pneumoniae HNR858. The conditions noted are these: Klebsiella pneumoniae; clinical isolate K. pneumoniae HNR858, Gram -, 10^6 viable cells per ml; read-out: minimum inhibitory concentration (MIC).
Excerpt: as §1

For another assay, the system named is S. aureus HPC308. The conditions noted are these: Staphylococcus aureus; clinical isolate S. aureus HPC308, Gram +, 10^6 viable cells per ml; read-out: minimum inhibitory concentration (MIC).
Excerpt: as §1

A further assay has as its system E. faecalis HPC948. The settings on record: Enterococcus faecalis; clinical isolate E. faecalis HPC948, Gram +, 10^6 viable cells per ml; read-out: minimum inhibitory concentration (MIC).
Excerpt: as §1

A further assay concerns S. marcescens HNR1792. The conditions noted are these: Serratia marcescens; clinical isolate S. marcescens HNR1792, Gram -, 10^6 viable cells per ml; read-out: minimum inhibitory concentration (MIC).
Excerpt: as §1

For another assay, the system named is S. marcescens HNR1767. The settings on record: Serratia marcescens; clinical isolate S. marcescens HNR1767, Gram -, 10^6 viable cells per ml; read-out: minimum inhibitory concentration (MIC).
Excerpt: as §1

Each structure is given as a SMILES string. In brackets after ≈: the same amount, converted by molar mass.

As for `Cc1c(N2CCNCC2)c(F)c(N)c2c(=O)c(C(=O)O)cn(C3CC3)c12` [Reference Compound B, 5-amino-1-cyclopropyl-6-fluoro-1,4-dihydro-8-methyl-4-oxo-7-piperazinylquinoline-3-carboxylic acid, reference compound], the MIC with A. calcoaceticus HNR939 was 3.13 µg/mL (≈ 8.69 µM); in the assay on K. pneumoniae HNR858, 0.78 µg/mL (≈ 2.16 µM); in the assay with S. aureus HPC308, 6.25 µg/mL (≈ 17.3 µM); in the assay with E. faecalis HPC948, 6.25 µg/mL (≈ 17.3 µM); in the assay with S. marcescens HNR1792 it was 6.25 µg/mL (≈ 17.3 µM); in the assay on S. marcescens HNR1767 it was 50 µg/mL (≈ 139 µM).
